Data reported in patent publication EP0238198A2, “Method of modifying the lipid structure function and expression of cell membranes and pharmaceutical compositions for use therein” (Habib, Nagy Adly, priority 1986, dated 1987).
Read-outs that look alike come from different tables or passages of the source.

What was measured:
[1] = tested on: malignant cells; test: tumour development in animals implanted with malignant cells; format: in vivo
[2] = tested on: D23 Rat hepatoma; test: tumour cell colony inhibition test (clonogenic assay); format: cell-based; parameters: inhibition of colony formation: dose or concentration left out as unconfirmed; details: for Mean no colonies ± SE: 5 days, medium control 41.8±3.5
Description: Cells from rat mammary carcinoma (Sp 22), primary rat fibroblasts (from alveolar tissue) and four rat hepatoma cell lines (D23, D261, D262A and D262B) were studied.
The method used for rat cells was as follows: 200 cells were plated per dish in 1 ml 'Eagles' methionine enriched medium (MEM) + 10% newborn calf serum (NBCS) in 30 mm culture dishes and incubated for four hours at 37°C. All became firmly adherent during this initial incubation. […] To control dishes 1 ml of MEM + NBCS was added, or 1 ml of MEM + NBCS + 1% ethanol. The dishes were incubated for 5 days. Medium was then removed, and the cell colonies were rinsed with 0.9% W/V NaCl solution and fixed for 15 minutes with methanol. Cell colonies were stained with 1% aqueous crystal violet and the dishes were allowed to dry.

[3] = tested on: type 2 herpes simplex virus (HSV); test: HSV2 replication in human embryonic lung fibroblasts (virus yield); format: cell-based, HSV type 2; details: Human alphaherpesvirus 2, Fibroblast, 28 h; for inhibition at 25 µM: stearic acid 25 µM; for inhibition at 50 µM: stearic acid 50 µM; for inhibition at 100 µM: stearic acid 100 µM
Description: Stearic and iodinated stearic acids were assayed for their inhibitory effects on the replication of type 2 herpes simplex virus (HSV) in sub-confluent monolayer cultures of human embryonic lung fibroblasts. […] This was accomplished by reacting hydriodic acid with oleic acid in acetic acid at 20°C. Excess iodine was removed at the end of the reaction by the addition of an excess of sodium thiosulphate, and the product fatty acid was extracted into hexane.
Bovine serum albumin conjugates of the fatty acids (prepared according to the method of A.A.Spector and-J.C.Hoak, J.Anal.Biochem. 1969, 32, 297-302) were added to the cell culture medium at various concentrations in the range 25 - 100 micromolar final concentration and at various times before and after (from 0 to 12 hours) infection with partially purified clinical isolates of HSV type 2, at a multiplicity of infection of 0.1 plaque forming units/cell.
28 hours after infection the titre of infectious virus in the culture supernatants was determined by standard infectious centre techniques on fresh human embryonic lung fibroblasts.

[4] = Rattus norvegicus, 120 h, read-out: % colony formation relative to medium control
[5] = time relative to infection 0 hours, read-out: % reduction in virus yield compared with control cultures
[6] = time relative to infection 1 hours, read-out: % reduction in virus yield compared with control cultures
[7] = time relative to infection 2 hours, read-out: % reduction in virus yield compared with control cultures
[8] = time relative to infection 3 hours, read-out: % reduction in virus yield compared with control cultures
[9] = time relative to infection 4 hours, read-out: % reduction in virus yield compared with control cultures
[10] = time relative to infection 8 hours, read-out: % reduction in virus yield compared with control cultures
[11] = time relative to infection 12 hours, read-out: % reduction in virus yield compared with control cultures
[12] = time relative to infection -1 hours, read-out: % reduction in virus yield compared with control cultures
[13] = time relative to infection -2 hours, read-out: % reduction in virus yield compared with control cultures
[14] = time relative to infection -3 hours, read-out: % reduction in virus yield compared with control cultures
[15] = time relative to infection -4 hours, read-out: % reduction in virus yield compared with control cultures
[16] = time relative to infection -8 hours, read-out: % reduction in virus yield compared with control cultures
[17] = time relative to infection -12 hours, read-out: % reduction in virus yield compared with control cultures

`CCCCCCCCCCCCCCCCCC(=O)O` [stearic acid, octadecanoic acid] was tested, and the development of tumours [1] was “inhibits the development of tumours”, the “inhibition of colony formation” value [2] was “significant inhibition of colony formation” and the activity at 0.01 µg/mL [2, 4] was 101%. For the same compound, the activity at 0.1 µg/mL [2, 4] was 88.5%, the activity at 1 µg/mL [2, 4] was 67% and the activity at 10 µg/mL [2, 4] was 67%. For the same compound, the activity at 50 µg/mL [2, 4] was 23%, the “Mean no colonies ± SE” value ([2]; stearic acid 10ng/ml) was 42.3±1.6 and the “Mean no colonies ± SE” value ([2]; stearic acid 100 ng/ml) was 37.0±1.5. For the same compound, the “Mean no colonies ± SE” value ([2]; stearic acid 1μg/ml) was 28.0±1.5, the “Mean no colonies ± SE” value ([2]; stearic acid 10 μg/ml) was 28.0±2.9 and the “Mean no colonies ± SE” value ([2]; stearic acid 50 μg/ml) was 10.0±2.6. For the same compound, the inhibition at 75 µM ([3]; 75 micromolar in the culture medium, cells treated for 3-4 hours before infection, read-out: maximum anti-viral activity (reduction in virus yield)) was 48%, the inhibition at 25 µM [3, 5] was 0% and the inhibition at 25 µM [3, 6] was 5%. The inhibition at 25 µM [3, 7] was 0%, the inhibition at 25 µM [3, 8] was 10% and the inhibition at 25 µM [3, 9] was 1%. For the same compound, the inhibition at 25 µM [3, 10] was 0%, the inhibition at 25 µM [3, 11] was 3% and the inhibition at 25 µM [3, 12] was 6%. It also gave an inhibition at 25 µM [3, 13] of 14%, an inhibition at 25 µM [3, 14] of 4% and an inhibition at 25 µM [3, 15] of 2%. The inhibition at 25 µM [3, 16] was 10%, the inhibition at 25 µM [3, 17] was 0% and the inhibition at 50 µM [3, 5] was 7%. The inhibition at 50 µM [3, 6] was 8%, the inhibition at 50 µM [3, 7] was 0% and the inhibition at 50 µM [3, 8] was 10%. For the same compound, the inhibition at 50 µM [3, 9] was 0%, the inhibition at 50 µM [3, 10] was 5% and the inhibition at 50 µM [3, 11] was 9%. The inhibition at 50 µM [3, 12] was 27%, the inhibition at 50 µM [3, 13] was 30% and the inhibition at 50 µM [3, 14] was 27%. The inhibition at 50 µM [3, 15] was 8%, the inhibition at 50 µM [3, 16] was 0% and the inhibition at 50 µM [3, 17] was 0%. It also gave an inhibition at 75 µM ([3]; stearic acid 75 µM, time relative to infection 0 hours, read-out: % reduction in virus yield compared with control cultures) of 18%, an inhibition at 75 µM ([3]; stearic acid 75 µM, time relative to infection 1 hours, read-out: % reduction in virus yield compared with control cultures) of 0% and an inhibition at 75 µM ([3]; stearic acid 75 µM, time relative to infection 2 hours, read-out: % reduction in virus yield compared with control cultures) of 9%. It also gave an inhibition at 75 µM ([3]; stearic acid 75 µM, time relative to infection 3 hours, read-out: % reduction in virus yield compared with control cultures) of 0%, an inhibition at 75 µM ([3]; stearic acid 75 µM, time relative to infection 4 hours, read-out: % reduction in virus yield compared with control cultures) of 3% and an inhibition at 75 µM ([3]; stearic acid 75 µM, time relative to infection 8 hours, read-out: % reduction in virus yield compared with control cultures) of 10%. It also gave an inhibition at 75 µM ([3]; stearic acid 75 µM, time relative to infection 12 hours, read-out: % reduction in virus yield compared with control cultures) of 5%, an inhibition at 75 µM ([3]; stearic acid 75 µM, time relative to infection -1 hours, read-out: % reduction in virus yield compared with control cultures) of 41% and an inhibition at 75 µM ([3]; stearic acid 75 µM, time relative to infection -2 hours, read-out: % reduction in virus yield compared with control cultures) of 38%. It also gave an inhibition at 75 µM ([3]; stearic acid 75 µM, time relative to infection -3 hours, read-out: % reduction in virus yield compared with control cultures) of 47%, an inhibition at 75 µM ([3]; stearic acid 75 µM, time relative to infection -4 hours, read-out: % reduction in virus yield compared with control cultures) of 48% and an inhibition at 75 µM ([3]; stearic acid 75 µM, time relative to infection -8 hours, read-out: % reduction in virus yield compared with control cultures) of 3%. The inhibition at 75 µM ([3]; stearic acid 75 µM, time relative to infection -12 hours, read-out: % reduction in virus yield compared with control cultures) was 8%, the inhibition at 100 µM [3, 5] was 11% and the inhibition at 100 µM [3, 6] was 14%. For the same compound, the inhibition at 100 µM [3, 7] was 8%, the inhibition at 100 µM [3, 8] was 11% and the inhibition at 100 µM [3, 9] was 0%. It also gave an inhibition at 100 µM [3, 10] of 7%.
